Experimental data reported in US20080199520A1, “S-Adenosyl-L-Methionine for Regulating Behavioral Disorders in Pets” (VIRBAC, priority 2005, published 2008).
Read-outs that look alike come from different tables or passages of the source.

Tests used:
[1] = tested on: old dogs presenting behavioral disorders associated with CDS; assay: Study of SAMe in old dogs presenting behavioral disorders associated with CDS (Example 1); type: in vivo; conditions: for dogs showing an improvement in activity level (owners) / mean activity level of the animals as observed by a veterinarian: at least 2.5 mg SAMe per kg per day
Experimental: A study was conducted to show the efficacy of S-adenosyl-L-methionine in old dogs presenting behavioral disorders associated with CDS.
S-adenosyl-L-methionine was administered in the form of tablets containing 10, 50 or 100 mg of SAMe.
15 dogs more than 7 years old were selected with no restrictions on breed, sex or weight. All the dogs presented well-established cognitive disorders associated with CDS (cleanliness problems, disorders of activity-sleep cycle, decrease in activity) which had been observed by their owners and by veterinarians.
Dogs presenting diseases requiring medical treatment were excluded from the study, as were dogs which had been treated with psychotropic drugs in the month preceding the study. Also, to avoid biases in the observations, heart, kidney and liver treatments and psychoactive drugs were not permitted during the study.
During the study the dogs received at least the equivalent of 2.5 mg of SAMe per kg of body weight per day in a single daily administration over a period of 4 months.
The dogs were examined by a veterinarian at the start of the experiment and then every month. The blood parameters were analyzed at each veterinary examination.
Experiment number 1: Measurement of the activity level of the dogs.
Experiment number 2: Measurement of the effect on the sleeping time of the dogs.
Experiment number 3: Evaluation of the effect on the anxiety of the dogs.

[2] = tested on: old dogs with behavioral disorders; assay: Randomized double-blind placebo-controlled study on reduced mental capacity of old dogs (Example 4); type: in vivo
Experimental: These behavioral disorders manifested themselves as follows: disorientation, decrease in activity, decrease in social interactions, changes in activity-sleep cycle, lack of cleanliness, anxiety.
The dogs were randomly assigned to one of two treatment groups: SAMe or placebo. […]
The dogs were examined by an investigator at the start of the experiment and then at 30 days and 60 days.
The examinations looked at the various behavioral disorders of the animals, which were evaluated on a scale of 0 to 3 according to their intensity, and all the scores were added together to give a “standardized geriatric behavior score” reflecting the severity of the problems observed.

[3] = tested on: old cats with cognitive disorders
Experimental: A study was conducted to show the effects of S-adenosyl-L-methionine on age-related behavioral disorders in cats.
SAMe was administered in the form of tablets containing 90 mg of an S-adenosyl-L-methionine salt (the 1,4-butanedisulfonate).
The tablets were given once a day for a period of 3 consecutive months to comply with the following doses: • Mean dose: 18 (±3.4) mg/kg/d; minimum dose: 12.9 mg/kg/d; maximum dose: 22.5 mg/kg/d.
The blood parameters were analyzed by the veterinarian every month. The owners were also asked to give their opinion on the changes observed in the behavior of their pets.

[4] = tested on: dogs presenting signs of fear; assay: Effect of the nutritional supplement on behavior and physical signs associated with fear in dogs (Example 2); type: in vivo; conditions: 7.5 mg SAMe/kg/day oral for one month, then 2.5 mg/kg/day for two months; sum of 6 parameter scores (FIG. 4)
Experimental: Another study was conducted to show the effect of administering to dogs a nutritional supplement based on S-adenosyl-L-methionine on the behavior and physical signs associated with fear.
The nutritional supplement used in this test consisted of tablets containing 10, 50 or 100 mg of SAMe. It was administered to the animals at a loading dose of 7.5 mg of SAMe per kg of body weight per day in a single daily oral administration for one month, and then at a maintenance dose of 2.5 mg of SAMe per kg of body weight per day in a single daily oral administration for the next two months.
15 dogs aged between 6 months and 15 years are selected with no restrictions on breed, sex or weight. In the two months preceding inclusion in the study, all the dogs presented signs of fear associated either with inhibited behavior or, conversely, with exaggerated responses. This type of problem had to have been identified in the dog for more than two months. The “overall fear score” (sum of the individual scores for the various parameters monitored) recorded at the start of the experiment had to be greater than 7, the parameters observed being as follows: • Pupil dilation. Score: 0=normal, 1=increased, 2=complete. • Trembling. Score: 0=none, 1=slight, 2=pronounced. • Exploration. […]

[5] = after two months of treatment, tosylate salt, 18.5 mg/kg/d
[6] = response to the treatment at D60, n = 17, tosylate salt, 18.5 mg/kg/d
[7] = 3 months, 1,4-butanedisulfonate salt, mean 18 mg/kg/d (FIG. 6)

## C[S@@+](CC[C@H](N)C(=O)O)C[C@H]1O[C@@H](n2cnc3c(N)ncnc32)[C@H](O)[C@@H]1O [SAMe, 5′-[[3S-amino-3-carboxypropyl]methyl-(S)-sulfonio]-5′-deoxyadenosine]
[1]; after one month
  dogs showing an improvement in activity level (owners): more than 70%
[1]; after one month, tablets, single daily administration, score -1 reduced, 0 unchanged, 1 increased (FIG. 1)
  mean activity level of the animals as observed by a veterinarian: increased significantly
[1]; after the first month, up to 4 months
  mean activity level of the animals as observed by a veterinarian: remained above the animals' normal activity
[1]; daily for 4 months, variations decreased considerably after two months (FIG. 2)
  sleeping time of the animals: tended to normalize
[1]; end of the study (4 months)
  efficacy as considered by the owners: very good
[1]; first two weeks of the treatment
  dogs showing an improvement in activity level (owners): 38%
[1]; throughout the 4-month period, score 0 none to 3 permanent (FIG. 3)
  anxiety of the animals: decreased regularly
[2]; [5]
  average improvement in terms of activity: 57.1%
  average improvement in terms of learning behavior, more particularly cleanliness: 57.1%
  average improvement in terms of reactivity: 59.5%
[2]; end of the study, majority of the owners
  owners' impression of their animals under treatment: more active and reactive
[2]; [6]
  % of dogs, Good response: 41.2%
  % of dogs, No response: 35.3%
  % of dogs, Poor response: 23.5%
  No. of dogs, Good response: 7
  No. of dogs, No response: 6
  No. of dogs, Poor response: 4
[2]; tosylate salt tablets once a day, average 18.5 mg/kg/d, versus placebo over the study period (FIG. 11)
  reduction of the standardized geriatric behavior score: more significant with SAMe than with placebo
[3]; [7]
  cases with improved elimination behavior: 40%
  cats with improved elimination behavior (number): 2 out of 5
[3]; 15 days after the start of the experiment (70% at the start)
  cats exhibiting ambulation or vocalization periods: 30%
[3]; after one month (FIG. 8)
  play activity of the cats: promising net effect
[3]; as from 15 days of treatment (FIG. 7)
  exploratory behavior of the cats: perceptible activating effect
[3]; as from the second month (70% at the start)
  cats exhibiting ambulation or vocalization periods: no cat
[3]; at 2 months (FIG. 8)
  cats with a positive result on play activity: 7 out of 10
[3]; cats which initially presented an interaction deficit (FIG. 9)
  interactions/recognition (owners, other animals): responded rather well
[3]; cats which manifested hyperattachment (FIG. 9)
  interactions/recognition (owners, other animals): more variable
[3]; during the 3-month study, 1,4-butanedisulfonate salt, mean 18 mg/kg/d
  periods of waking with a start or nightmares: No cat
[3]; end of the study (3 months)
  efficacy as considered by the owners: very good
[3]; in one month, 1,4-butanedisulfonate salt tablets, mean dose 18 mg/kg/d once a day (FIG. 5)
  cats with a return to a normal day-night cycle: 7 out of 10
[3]; in three months (FIG. 10)
  cats in which aggressiveness or irritability was eliminated (number): 4 out of 5
[3]; in three months, encountered in 50% of the cats (FIG. 10)
  manifestations of aggressiveness or irritability eliminated: 80%
[3]; in vivo
  side effects: without causing side effects
[4]
  overall fear score: decreases very substantially
